The results in this text go back to PubChem BioAssay AID2384 (Southern Research Specialized Biocontainment Screening …, 2010).

By pIC50 is commonly meant the IC50 on a negative log10 scale, so that one unit is a factor of ten.

pIC50: −log10 of the molar value.

This experiment deals with S. typhi GFP reporter counter-screen, fluorescence, 4 h. Kind of experiment: S. typhi counter-screen signal inhibition – fluorescence, 4 h, counter-screen for PhoP regulon inhibitor project, dose response (AID 2384). For orientation: Counterscreens check selectivity or assay interference.
As for `CN(C)c1ccc(/C=C/c2ccc3ccccc3[n+]2C)cc1`, the negative-log IC50 (pIC50) was 4.72.
Take `O=C(N/N=C/c1ccc([N+](=O)[O-])o1)c1ccc(O)cc1`: the pIC50 is 4.42.
On to `CC1CCN(CCCCOc2ccc(Cl)cc2)CC1`, for which the pIC50 was 3.87.
With `CCCCC(CC)CN=C(N)NC(N)=NCCCCCCN=C(N)NC(N)=NCC(CC)CCCC` (centres undefined), the pIC50 was 5.33.
For `O=C(Nc1ccc(-c2nc3ccccc3[nH]2)cc1)c1ccco1`, the pIC50 is 4.03.
For `COCCCNC(=S)NNC(=O)c1ccccn1`, the pIC50 is 4.63.
For the compound `CCn1cc(C(=O)O)c(=O)c2ccc(C)nc21`, the pIC50 was 4.08.
Turning to `CN1CCC(OC(=O)c2cccc(Br)c2)CC1`, the pIC50 was 4.25.
As to `COc1ccc(S(=O)(=O)N2CN3CCN(C3)C2)cc1`, the pIC50 is 4.04.
As for `O=C(NNC(=S)NC(=O)c1ccco1)c1ccc(F)cc1`, the negative-log IC50 (pIC50) was 3.88.
With `O=[N+]([O-])c1cc(F)c2cccnc2c1O`, the negative-log IC50 (pIC50) is 5.13.
For the compound `Cc1cc(NC(=O)c2ccc3[nH]c(C)c(C)c3c2)ccn1`, the pIC50 was 4.18.
For the compound `Cc1ccc(-c2cc(-c3ccc(C)cc3)[n+](-c3ccccc3)c(-c3ccc(C)cc3)c2)cc1`, the pIC50 is 4.63.
As for `Cc1ccc(OCC(=O)N/N=C/c2ccc([N+](=O)[O-])o2)cc1`, the pIC50 was 4.55.
`O=C1C(=O)c2ccccc2-c2ccccc21`: the pIC50 is 4.71.
For `Cn1ncnc2c(=O)n(C)c(=O)nc1-2`, the negative logarithm of the IC50 (pIC50) was 5.60.
Regarding `COc1cccc(Nc2nc(NCCO)c3ccccc3n2)c1`, the pIC50 was 4.24.
Regarding `CCCCn1c(NS(=O)(=O)c2ccccc2)c(C(=O)OCC)c2nc3ccccc3nc21`, the pIC50 was 4.23.
Turning to `c1cc2c(cc1C1CCCCC1)c1c3n2CCCNC3CCC1` (centres undefined), the pIC50 was 4.69.
With `CCc1cccc2c(C(=O)COC(=O)c3ccc([N+](=O)[O-])s3)c[nH]c12`, the pIC50 is 4.73.
In the case of `Cc1cc([N+](=O)[O-])cc(/C=N\NC(=O)C2COc3ccccc3O2)c1O` (centres undefined), the negative logarithm of the IC50 (pIC50) is 4.52.
The value for `C#CCOCCOCCOCCNc1nc(N2CCN(C(=O)[C@H](Cc3ccc(O)cc3)n3cc([C@@H](N)C(C)CC)nn3)CC2)nc(N2CCN(C(=O)[C@H](Cc3cc4ccccc4[nH]3)n3cc([C@@H](N)Cc4ccc(O)cc4)nn3)CC2)n1` (some centres undefined) was 4.49.
As for `COc1ccc(C2NCCc3c2[nH]c2ccccc32)cc1COc1ccc(F)cc1` (centres undefined), the pIC50 is 4.45.
On to `COc1cccc(NC2=NC3(CCCCC3)N=C(N)N2)c1`, for which the pIC50 was 3.83.
`O=C(N/N=C/c1ccc([N+](=O)[O-])s1)c1ccccc1Br`: the pIC50 was 4.11.
With `O=C(COc1ccc(Br)cc1CNCCc1ccccc1)NCc1ccccc1`, the pIC50 is 3.98.
For `CNC[C@H](Cc1ccccc1)NC[C@@H](Cc1cccc2ccccc12)NCCc1ccc(C)cc1`, the pIC50 was 4.83.
Take `CN(C)CC/C=C1/c2cc(F)ccc2Sc2ccc(Cl)cc21`: the pIC50 was 4.46.
Regarding `O=C(NC(=S)NNC(=O)c1cnccn1)c1ccc(F)cc1`, the pIC50 is 4.61.
`O=C(Nc1ccncc1)Nc1ccc(Cl)cc1`: the pIC50 was 4.07.
To `CN1CC(C(=O)c2ccc(Cl)cc2)C(c2ccc(Cl)cc2Cl)C1` (centres undefined) belongs 4.63.
Take `Cc1cccn2c(=O)c(C=O)c(Cl)nc12`: the pIC50 was 3.84.
In the case of `O=C(Nc1cccc(Br)c1)c1cc2ccccc2o1`, the pIC50 was 4.08.
With `O=C(N/N=C/C1CC=CCC1)c1cc(Br)ccc1O` (centres undefined), the negative-log IC50 (pIC50) is 3.91.
Consider `Cc1ccc(S(=O)(=O)NNc2ccccc2)c(C)c1`, for which the pIC50 is 4.37.
`CN(C)c1nnnn1-c1ccc(Oc2ccccc2)cc1`: the pIC50 was 6.57.
To `O=C(Nc1cccc(N=Cc2cc(Cl)cc(Br)c2O)c1)c1ccco1` belongs 4.22; to `O=C(N/N=C/c1c[nH]c2ccccc12)c1cc2ccccc2o1`, 4.00.
With `CCc1ccc(NC(=O)Nc2ccncc2)cc1`, the pIC50 was 4.05.
Turning to `CCCCCOc1ccc(CSC2=NCCN2)cc1[N+](=O)[O-]`, the pIC50 was 4.49.
As to `O=c1c(O)cccc2cc(O)c(O)c(O)c12`, the pIC50 is 4.73.
To `C=C1c2c(Cl)ccc(O)c2C(O)=C2C(=O)[C@]3(O)C(O)=C(C(N)=O)C(=O)[C@@H](N(C)C)[C@@H]3[C@@H](O)C12` (some centres undefined) belongs 6.62; to `O=C(Nc1cccc(Cl)c1)Nc1nccs1`, 4.24; to `COc1ccc(/C=N/Nc2cc(C)nc3ccc(Br)cc23)cc1`, 4.44.
On to `O=C(/C=C/c1cccs1)NC(=S)NNC(=O)c1ccccc1O`, for which the negative-log IC50 (pIC50) is 4.58.
The value for `CCOc1cccc(/C=N/NC(=O)c2cc(C3CC3)[nH]n2)c1O` was 3.89; that for `O=C(N/N=C/c1cc(Br)ccc1O)c1ccccc1Cl` was 3.95.
On to `Fc1ccccc1CCNCc1ccccc1`, for which the pIC50 is 4.46.
Take `O=C(CCN1CCOCC1)N/N=C/c1cc(Br)cc(Br)c1O`: the pIC50 is 4.56.
Turning to `CC[N+](C)(CC)CCC[n+]1c(-c2ccccc2)c2cc(N)ccc2c2ccc(N)cc21`, the pIC50 is 3.89.
The value for `C#CCOCCOCCOCCNc1nc(N2CCN(C(=O)CCCCCCCCCCNC(=O)[C@H](CCCCN)n3cc(CCO)nn3)CC2)nc(N2CCN(C(=O)CCCCCCCCCCNC(=O)[C@H](CCCCN)n3cc(CCO)nn3)CC2)n1` was 4.44; that for `Cc1cc(C)n(/N=C/c2cc([N+](=O)[O-])ccc2O)c(=O)c1` was 4.40.
`NC1=NC[C@H](Cc2ccc(O)cc2)N1CCc1cccc2ccccc12`: the pIC50 is 4.44.
Turning to `Cc1ccc(NNS(=O)(=O)c2ccc(C)cc2)cc1`, the pIC50 is 3.95.
Take `OCCN1CCN(C2CCC(c3ccc(F)cc3)c3ccc(F)cc32)CC1` (centres undefined): the pIC50 was 4.80.
To `O=c1c2ccccc2nc(N/N=C/c2c(O)ccc3ccccc23)n1O` belongs 4.79; to `O=C(CCN1CCN(c2ccccc2)CC1)N/N=C/c1ccc([N+](=O)[O-])o1`, 3.88.
As to `CC1=NOC(=O)/C1=C/c1ccc(O)cc1`, the pIC50 is 3.84.
For `Cc1ccc(NC(=O)CNCc2ccccc2)cc1Br`, the pIC50 was 4.37.
Consider `Oc1c(CN2CCOCC2)cc(COCc2ccccc2)c2cccnc12`, for which the pIC50 was 4.44.
Regarding `CO[C@H]1/C=C/O[C@@]2(C)Oc3c(C)c(O)c4c(O)c(c(C=NN5CCN(C)CC5)c(O)c4c3C2=O)NC(=O)/C(C)=C\C=C\[C@H](C)[C@H](O)[C@@H](C)[C@@H](O)[C@@H](C)[C@H](OC(C)=O)[C@@H]1C`, the pIC50 was 5.05.
For the compound `C=CC1=C(C(=O)O)N2C(=O)[C@@H](NC(=O)/C(=N\O)c3csc(N)n3)[C@H]2SC1` (stereo in doubt), the pIC50 is 4.81.
To `O=C(O)c1sccc1Oc1ccc(F)cc1[N+](=O)[O-]` belongs 4.88; to `Cc1ccc(NC(=O)CSC(N)=O)cc1Cl`, 4.09; to `O=C(N/N=C/c1sc2ccccc2c1O)c1cccc2ccccc12`, 4.59.
To `CCOC(=O)N/N=C\c1ccc([N+](=O)[O-])o1` belongs 4.51.
As to `CCn1cc(C(=O)NCCN(C)C)c(=O)c2cc(F)c(N3CCN(C)CC3)cc21`, the pIC50 is 4.28.
To `O=C(N/N=C/c1cc([N+](=O)[O-])ccc1O)c1cccc2cc[nH]c12` belongs 4.73; to `C#CCOCCOCCOCCNc1nc(N2CCN(C(=O)CCCCCCCCCCNC(=O)[C@H]([C@@H](C)CC)n3cc(CCCCCN)nn3)CC2)nc(N2CCN(C(=O)CCCCCCCCCCNC(=O)[C@H]([C@@H](C)CC)n3cc(CCCCN=C(N)N)nn3)CC2)n1`, 4.60.
